Each structure is given as a SMILES string.

A short description of the first series: in vitro. The conditions noted are these: human, hela cells, % viability.
For the compound `Cc1noc(NS(=O)(=O)c2ccc(NC(=O)/C=C/c3ccc(Cl)cc3Cl)cc2)c1C` [CBK263115], the viability at 28.5 h, 10 µM is 90.4%.

`O=C(O)COc1ccccc1/C=N/NC(=O)Cc1ccc(Br)c2ccccc12` [CBK263116]: the viability at 28.5 h, 10 µM was 85.6%. The same measure, in the same setting: with `NC(=O)c1ccccc1NC(=O)CCN1C(=O)c2cccc([N+](=O)[O-])c2C1=O` [CBK263118] the figure was 87.4%; with `CCOc1ccc2nc(NC3=NC(CC(=O)O)C(=O)N3)nc(C)c2c1` (stereo not shown) [CBK263120], 103%; with `N#C/C(=C/c1ccc(-c2ccc(S(N)(=O)=O)cc2)o1)C(=O)Nc1ccccc1` [CBK263123], 119%. In the case of `O=C1N/C(=N/N=C\c2cccc([N+](=O)[O-])c2)SC1Cc1ccc(Br)cc1` (stereo not shown) [CBK263125], the viability at 28.5 h, 10 µM came out at 101%. Same read-out and setting: with `NS(=O)(=O)c1ccc(-c2ccc(/C=C3/SC(=S)N(C4CCCCC4)C3=O)o2)cc1` [CBK263127] the figure was 88%. For `CN1CCN(c2nc3ccccn3c(=O)c2/C=C2\SC(=S)N(CCc3ccccc3)C2=O)CC1` [CBK263131], the viability at 28.5 h, 10 µM is 110%.

In the case of `NC(=O)c1c(NC(=O)CCN2C(=O)c3cccc([N+](=O)[O-])c3C2=O)sc2c1CCCC2` [CBK263132], the viability at 28.5 h, 10 µM turned out to be 105%.

As for `CC1CCCC(C)N1CC(O)COCc1ccc2c(c1)OCO2` (stereo not shown) [CBK263134C], the viability at 28.5 h, 10 µM was 86.3%. On to `COc1ccc(CCNc2c(Cc3ccccc3)c(C)c(C#N)c3nc4ccccc4n23)cc1OC` [CBK263135], for which the viability at 28.5 h, 10 µM came out at 93%. For `Cc1ccc(C(=O)N/C(=C\c2ccccc2F)c2n[nH]c(=S)[nH]2)cc1` [CBK263136], the viability at 28.5 h, 10 µM was determined as 87.4%. On the same count and under the same terms, to `Sc1nnc(COc2ccc(Cl)cc2Cl)n1Cc1ccccc1` [CBK263138] belongs 88.2%; to `N#Cc1c2c(c(NCCN3CCCCC3)n3c1nc1ccccc13)CCC2` [CBK263140], 114%. With `C/C(=N\NC(=O)CCN1CCN(C)CC1)c1ccc(O)cc1` [CBK263142], the viability at 28.5 h, 10 µM stood at 92.2%. For `Cc1c(Cc2ccccc2)c(-n2ccnc2C)n2c(nc3ccccc32)c1C#N` [CBK263144], the viability at 28.5 h, 10 µM amounted to 92.4%. Take `O=C(CC(=O)Nc1c(Cl)cccc1C(F)(F)F)Nc1c(Cl)cccc1C(F)(F)F` [CBK263148]: the viability at 28.5 h, 10 µM stood at 103%.

As to `Cc1c(Cc2ccccc2)c(N2CCN(Cc3ccccc3)CC2)n2c(nc3ccccc32)c1C#N` [CBK263150], the viability at 28.5 h, 10 µM amounted to 94.9%. With `CCOCCCNc1c2c(c(C#N)c3nc4ccccc4n13)CCC2` [CBK263151], the viability at 28.5 h, 10 µM came to 93.5%. Take `Cc1ccc2[nH]c3c(c2c1)CCCC3NCC(O)Cc1ccccc1` (stereo not shown) [CBK263154]: the viability at 28.5 h, 10 µM was 87.2%. For `O=C(O)CN(c1ccccc1[N+](=O)[O-])S(=O)(=O)c1ccccc1` [CBK263158], the viability at 28.5 h, 10 µM was 95.6%. On the same count and under the same terms, with `O=[N+]([O-])c1ccc(CN2CCN(Cc3cccnc3)CC2)cc1` [CBK263161] the figure was 109%; with `Cc1cc([N+](=O)[O-])ccc1NC(=O)Cn1cnc2c1c(=O)n(C)c(=O)n2C` [CBK263162], 105%; with `CN1CCN(/N=C/c2c(C(F)(F)F)[nH]n(-c3nc4ccccc4s3)c2=O)CC1` [CBK263163], 92.4%. In the case of `CCn1c2ccccc2c2cc(CN3CCN(Cc4cc(OC)cc(OC)c4)CC3)ccc21` [CBK263164], the viability at 28.5 h, 10 µM amounted to 95.9%. Take `O=C(CCN1CCOCC1)Nc1ccc(Br)cc1C(=O)c1ccccc1` [CBK263165]: the viability at 28.5 h, 10 µM was found to be 93%. As for `Cc1ccc(S(=O)(=O)N(CC(=O)NC2CCCC2)Cc2ccccc2)cc1` [CBK263166], the viability at 28.5 h, 10 µM was found to be 89.9%.

On to `Cc1nc2ccc(NC(=S)N3c4ccccc4CC3C)cc2nc1C` (stereo not shown) [CBK263169], for which the viability at 28.5 h, 10 µM amounted to 62.5%.

Consider `C=CCn1c(COc2ccc(Cl)cc2)nnc1SCC(=O)O` [CBK263171], for which the viability at 28.5 h, 10 µM worked out at 105%. For `COc1ccccc1N1CCN(/N=C\c2ccccc2OCC(=O)O)CC1` [CBK263173C], the viability at 28.5 h, 10 µM came out at 93.5%. Consider `COc1cc(/C=C2\N=C(c3cccs3)OC2=O)ccc1OCc1ccc(Cl)cc1` [CBK263176], for which the viability at 28.5 h, 10 µM was 101%. On the same count and under the same terms, to `CCn1c(SCC(=O)N/N=C/C(C)=C/c2ccccc2)nc2ccccc21` [CBK263178] belongs 107%; to `C/C(=N/NC(=O)CSc1nc2ccccc2n1C)c1cccc([N+](=O)[O-])c1` [CBK263179], 99.3%. Take `C/C(=N\NC(=O)CSc1nc2ccccc2n1Cc1ccccc1)c1ccco1` [CBK263180]: the viability at 28.5 h, 10 µM was found to be 118%. As for `O=C(/C=C/c1ccco1)Nc1sc2c(c1C(=O)O)CCC2` [CBK263181], the viability at 28.5 h, 10 µM was determined as 97.7%. Same read-out and setting: with `CCOC(=O)c1c(NC(=O)CSc2nnc(C)s2)sc2c1CCC2` [CBK263183] the figure was 91.2%; with `Cc1cc(=O)oc2ccc(OCC(=O)Nc3ccc(S(=O)(=O)O)cc3)cc12` [CBK263185N], 100%; with `CCOc1cccc(NC(=O)/C(C#N)=C\c2cc(C)n(-c3cccc(C(=O)O)c3)c2C)c1` [CBK263186], 115%. Take `Nn1cnn2c(SCc3ccccc3)nnc12` [CBK263188]: the viability at 28.5 h, 10 µM was 112%.

In the case of `CCOc1cccc(NC(=O)/C(C#N)=C\c2cc(OC)c(O)cc2Br)c1` [CBK263189], the viability at 28.5 h, 10 µM was determined as 95.2%.

In the case of `Cn1ccnc1SCC(=O)Nc1ccc(S(N)(=O)=O)cc1` [CBK263190], the viability at 28.5 h, 10 µM came to 84.6%.

As to `Nn1cnn2c(SCc3ccc(Cl)cc3)nnc12` [CBK263193], the viability at 28.5 h, 10 µM is 106%. For the compound `Nn1cnn2c(SCC(=O)c3ccccc3)nnc12` [CBK263194], the viability at 28.5 h, 10 µM came to 99.8%. `O=C(O)c1cccc(-c2ccc(/C=N/Nc3ccc([N+](=O)[O-])cn3)o2)c1` [CBK263196]: the viability at 28.5 h, 10 µM stood at 89.9%. `COc1ccc(C(=O)CSc2nnc3n(N)cnn23)cc1` [CBK263201]: the viability at 28.5 h, 10 µM turned out to be 94.6%.

For `CC(=O)c1ccc(NS(=O)(=O)c2cc(C(=O)Nc3ccccc3C(=O)O)ccc2Br)cc1` [CBK263203], the viability at 28.5 h, 10 µM worked out at 97.2%. For `O=C(/C=C/c1cn(-c2ccccc2)nc1-c1cccnc1)c1ccc(-c2ccccc2)cc1` [CBK263213], the viability at 28.5 h, 10 µM worked out at 95.5%. With `CCC(Sc1ncccc1C(=O)O)C(=O)O` (stereo not shown) [CBK263216], the viability at 28.5 h, 10 µM amounted to 98.4%. Same read-out and setting: to `CCC1(CC)Cc2ccccc2-c2nc(NN)n(Cc3ccccc3)c(=O)c21` [CBK263217] belongs 102%; to `Cc1ccc(C(=O)Nc2ccc(C(=O)O)cc2)cc1S(=O)(=O)NCc1ccccc1` [CBK263219], 101%; to `O=C(O)c1cccc(S(=O)(=O)N(CCO)CCO)c1` [CBK263221], 93.2%. Consider `O=C(Nc1ccccc1[N+](=O)[O-])c1cc(S(=O)(=O)Nc2ccccn2)ccc1Cl` [CBK263229], for which the viability at 28.5 h, 10 µM amounted to 87.8%. On the same count and under the same terms, to `C=CCn1c2ccccc2c2nnc(SCC(=O)OCN3C(=O)c4ccccc4C3=O)nc21` [CBK263231] belongs 106%; to `O=C(Nc1ccc(Br)cc1)C1CC(O)CN1C(=O)OCc1ccccc1` (stereo not shown) [CBK263233], 101%. As to `O=C(Nc1ccccc1C(=O)O)c1cc(S(=O)(=O)Nc2cccc([N+](=O)[O-])c2)ccc1Cl` [CBK263234], the viability at 28.5 h, 10 µM amounted to 90.3%. Regarding `Cc1cc(CN2CCOCC2)oc1C(=O)O` [CBK263239C], the viability at 28.5 h, 10 µM came out at 104%.

Take `O=C(Nc1ccccc1[N+](=O)[O-])c1cc(S(=O)(=O)NCc2ccccc2)c(Cl)cc1Cl` [CBK263240]: the viability at 28.5 h, 10 µM is 91.5%. For `O=C(O)c1cccc(NS(=O)(=O)c2ccc(Cl)c(C(=O)Nc3ccc(Br)cc3)c2)c1` [CBK263241], the viability at 28.5 h, 10 µM turned out to be 87%.

`CN(C)S(=O)(=O)c1ccc(C(=O)Nc2ccc(Br)cc2C(=O)c2ccccc2)cc1` [CBK263243]: the viability at 28.5 h, 10 µM turned out to be 81.1%.

On to `O=C(O)C[S+]([O-])c1ccccc1C(=O)O` (stereo not shown) [CBK263244], for which the viability at 28.5 h, 10 µM amounted to 96.3%. Regarding `O=C(Nc1ccccc1C(=O)O)c1cc(S(=O)(=O)Nc2ccc(F)cc2)ccc1Cl` [CBK263248], the viability at 28.5 h, 10 µM amounted to 120%. As for `O=S(=O)(NCc1ccccc1)c1cccc(S(=O)(=O)NCc2ccccc2)c1` [CBK263250], the viability at 28.5 h, 10 µM was found to be 91.5%. Still for that read-out and setting: with `O=S(=O)(NCc1ccccc1)c1ccc(Cl)c(S(=O)(=O)NCc2ccccc2)c1` [CBK263251] the figure was 81.9%; with `O=C(Nc1ccccc1-c1nc2ccccc2[nH]1)c1ccc(S(=O)(=O)N2CCCC2)cc1` [CBK263252], 88.5%. For the compound `Cc1cc(-c2ccc([N+](=O)[O-])cc2)nc2ccc3ccccc3c12` [CBK263253C], the viability at 28.5 h, 10 µM was 90.3%. Regarding `Nc1ccc(S(=O)(=O)Nc2nccc(/C=C/c3ccc(Cl)cc3)n2)cc1` [CBK263254], the viability at 28.5 h, 10 µM was 105%.

As for `Fc1cccc(-c2nnc(SCc3nc4ccccc4[nH]3)n2-c2ccccc2)c1` [CBK263256], the viability at 28.5 h, 10 µM amounted to 95.3%.

For `c1ccc(-n2nnnc2SCc2cccc(CSc3nnnn3-c3ccccc3)n2)cc1` [CBK263258], the viability at 28.5 h, 10 µM stood at 90.4%. For the compound `COc1ccc(NC(=O)c2ccc(N3CCN(Cc4ccccc4)CC3)c([N+](=O)[O-])c2)cc1` [CBK263260], the viability at 28.5 h, 10 µM turned out to be 106%.

Consider `NNC(=O)c1cc2ccccc2cc1NS(=O)(=O)c1ccccc1` [CBK263261], for which the viability at 28.5 h, 10 µM came to 84.4%. Regarding `O=C(CSCc1nc2ccccc2[nH]1)Nc1ccc2ccccc2c1` [CBK263262], the viability at 28.5 h, 10 µM turned out to be 90.5%.

For `Cc1ccc(C(=O)O/N=C(\N)c2ccccn2)cc1` [CBK263265], the viability at 28.5 h, 10 µM was 90.9%. On the same count and under the same terms, with `Cc1ccc(S(=O)(=O)NCCOc2ccc(Cl)cc2)cc1[N+](=O)[O-]` [CBK263268] the figure was 106%. Turning to `O=C(CN(c1cccc(Cl)c1)S(=O)(=O)c1ccccc1)Nc1cccc2cccnc12` [CBK263270], the viability at 28.5 h, 10 µM is 87.9%. Consider `Cc1oc(C(=O)Nc2ccc(C(=O)O)cc2)cc1COc1ccccc1` [CBK263273], for which the viability at 28.5 h, 10 µM is 94.2%.

The same series, now with this note: human, hela cells, % viability, bulk resorufin, single well.
Consider `Cc1ccc(CN2CCN(Cc3ccc([N+](=O)[O-])cc3)CC2)cc1` [CBK263168], for which the viability at 28.5 h, 10 µM was 92.9%.

The record behind these values is article PMC12040169 (PLOS Biology, 2025).
